According to patent US20190159455A1 (priority 2016, published 2019):
Where two headings read alike, the source gives them in different places.

Test system: Phytophthora infestans(Phytin)
Format: cell-based
Settings: 7 days after inoculation

`O=C(NCCc1ncc(C(F)(F)F)cc1Cl)c1ccccc1C(F)(F)F` [Fluopyram, fluopyram] gave an Observed efficacy (1 ppm) of 10.
In the case of `c1ccc(-c2noc(-c3cccs3)n2)cc1` [Tioxazafen, tioxazafen], the Observed efficacy (4 ppm) is reported as 7.
